From patent EP4631941A1 (Jiangsu Tasly Diyi Pharmaceutical Co., Ltd., priority 2022, dated 2024) come the findings set out here.

In general, IC50 refers to the concentration that gives 50% inhibition.

Where two headings read alike, the source gives them in different places.

In one data set the target is T1, DYRK2 kinase (Homo sapiens, UniProt Q92630).
T1 sequence (Q92630 1-601): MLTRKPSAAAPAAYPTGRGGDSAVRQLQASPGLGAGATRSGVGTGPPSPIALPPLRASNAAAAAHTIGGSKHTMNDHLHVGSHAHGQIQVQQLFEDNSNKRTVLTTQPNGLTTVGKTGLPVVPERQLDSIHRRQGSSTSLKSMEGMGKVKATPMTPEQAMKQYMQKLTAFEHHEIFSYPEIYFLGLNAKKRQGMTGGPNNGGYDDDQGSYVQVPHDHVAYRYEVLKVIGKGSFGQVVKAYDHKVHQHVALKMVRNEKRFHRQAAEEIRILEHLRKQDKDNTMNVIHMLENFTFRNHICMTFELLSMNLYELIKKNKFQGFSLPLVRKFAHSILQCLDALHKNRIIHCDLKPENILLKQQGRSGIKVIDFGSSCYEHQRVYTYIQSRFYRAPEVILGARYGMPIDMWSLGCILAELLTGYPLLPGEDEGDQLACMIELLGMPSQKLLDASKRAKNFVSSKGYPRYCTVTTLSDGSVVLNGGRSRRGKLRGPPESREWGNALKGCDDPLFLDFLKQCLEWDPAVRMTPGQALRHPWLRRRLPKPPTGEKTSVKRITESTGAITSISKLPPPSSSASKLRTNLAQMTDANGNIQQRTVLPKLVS
As to the kind of experiment: DYRK2 kinase activity analysis assay (33P-ATP, DYRKtide substrate, P81 filter paper). The format is biochemical. Particulars: 2 hours at room temperature.

In data set [1] the test system is prostate cancer DU145 cells. The experiment in a line: Cell proliferation inhibition activity assay (CCK-8 method), DU145. The format is cell-based. Background: Tetrazolium assays rely on reduction of a dye to a coloured formazan, in cell work by metabolically active cells.
The next data set has as its system ICR mice. The experiment in a line: Acute toxicity test, single gavage, 14 days observation. The format is in vivo.
In data set [2] the test system is human prostate cancer cell DU145 xenografts in nude mice. As to the kind of experiment: In vivo efficacy assay against prostate cancer (DU145 xenograft). Also on record: species or system BALB/c nude mice. Particulars: Example 20 study, 21 days; for T/C(%) / tumor inhibition rate: DU145 xenograft; for body weight of nude mice during dosing: each group, once a day.

The test system of data set [3] is prostate cancer 22Rv1 cells. As to the kind of experiment: Cell proliferation inhibition activity assay (CCK-8 method), 22Rv1. The format is cell-based.

Turning to `Cl.O=C(c1ccc(Nc2ncc(F)c(-c3ccc4scnc4c3)n2)nc1)N1CCNCC1` [Example 20, (6-((4-(benzothiazole-5-yl)-5-fluoropyrimidine-2-yl)amino)pyridine-3-yl)(piperazine-1-yl)ketone hydrochloride], the IC50 at DYRK2 kinase (read-out: IC50) is 0.6 nM; in data set [1] (Homo sapiens, DU-145, DU145 cells, 72 hours, CCK8), 3.25 ± 0.06 µM; in data set [3] (Homo sapiens, 22Rv1 cells, 72 hours, CCK8), 2.55 ± 0.046 µM. For the same compound, the “inhibition of proliferation of prostate cancer DU145 cell” value in data set [1] (result in words) was “significantly inhibit”. Also, the “death of animals after day 14 of dosing” value with ICR mice (gavage once, 1000, 2500, 5000 and 10000 mg/kg, day 14) is “no animals died”. Besides, in the data set with ICR mice (gavage once, 1000, 2500, 5000 and 10000 mg/kg, dissection after 14 days), the “weight of main organs (heart, liver, spleen, lung, kidney) versus control group” value is “no difference in the weight of main organs”. In addition, in the data set on ICR mice (gavage once, 1000, 2500, 5000 and 10000 mg/kg, within 12 hours after dosing), the abnormality after dosing result is on record as “no abnormality was observed”. For the same compound, the “death of animals within 24 hours of dosing” value with ICR mice (gavage once, 1000, 2500, 5000 and 10000 mg/kg, within 24 hours) was “No animals died”. Also, the “toxic or side effects (overall conclusion)” value with ICR mice (gavage once, up to 10000 mg/kg) is recorded as “no obvious toxic or side effects”. Besides, the “T/C(%)” value is given as 50.9% in data set [2] (100 mg/kg once a day) and 34.4% in data set [2] (high dose 200 mg/kg once a day). Further, the tumor inhibition rate in data set [2] (100 mg/kg once a day) amounted to 48.7%; in data set [2] (high dose 200 mg/kg once a day) it was 65.3%. In addition, the “body weight of nude mice during dosing” value in data set [2] is recorded as “no significant decrease in body weight”. Moreover, the “inhibition of proliferation of prostate cancer 22Rv1 cell” value in data set [3] (result in words) was “significantly inhibit”.

In the case of `CCN(CC)c1nc2cc(-c3nc(Nc4ccc(C(=O)N5CCN(C(C)C)CC5)nc4)ncc3F)ccc2s1` [Example 34, (5-((4-(2-(diethylamino)benzothiazole-5-yl)-5-fluoropyrimidine-2-yl)amino)pyridine-2-yl)(4-isopropylpiperazine-1-yl)ketone], the IC50 on DYRK2 kinase (read-out: IC50) came to 45 nM.

Regarding `CC(=O)N1CCN(C(=O)c2ccc(Nc3ncc(F)c(-c4ccc5nc(N(C)C)sc5c4)n3)nc2)CC1` [Example 35, 1-(4-(6-((4-(2-(dimethylamino)benzothiazole-6-yl)-5-fluoropyrimidine-2-yl)amino)nicotinoyl)piperazine-1-yl)ethyl-1-one], at DYRK2 kinase (IC50 (nM)), the concentration for half-maximal inhibition (IC50) stood at 22 nM.

Compound `CN(C)c1nc2ccc(-c3nc(Nc4ccc(C(=O)N5CCN(C(=O)C6CC6)CC5)cn4)ncc3F)cc2s1` [Example 36] had an IC50 against DYRK2 kinase (IC50 (nM)) of 16 nM.

Regarding `CN(C)c1nc2ccc(-c3nc(Nc4ccc(C(=O)N5CCN(c6ccccc6)CC5)cn4)ncc3F)cc2s1` [Example 37, (6-((4-(2-(dimethylamino)benzothiazole-6-yl)-5-fluoropyrimidine-2-yl)amino)pyridine-3-yl)(4 - arylpiperazine-1-yl)ketone], it took 683 nM to reach half-maximal inhibition against DYRK2 kinase (IC50 (nM)) (IC50).

For `CCOC(=O)N1CCN(C(=O)c2ccc(Nc3ncc(F)c(-c4ccc5nc(N(C)C)sc5c4)n3)nc2)CC1` [Example 38, ethyl 4-(6-((4-(2-(dimethylamino)benzothiazole-6-yl)-5-fluoropyrimidine-2-yl)amino)nicotinoyl)piperazine-1-carboxylate], on DYRK2 kinase (read-out: IC50), the IC50 amounted to 91 nM.

In the case of `CNC(=O)c1ccc(N2C(=S)N(c3ccc(C#N)c(C(F)(F)F)c3)C(=O)C2(C)C)cc1F` [enzalutamide, reference compound], in data set [2] (100 mg/kg once a day), the “T/C(%)” value turned out to be 42.0% and the tumor inhibition rate is reported as 57.8%. The “body weight of nude mice during dosing” value in data set [2] is recorded as “no significant decrease in body weight”.
